# Data taken from ChEMBL document CHEMBL3751684, “2,3-Dihydrobenzofuran privileged structures as new bioinspired lead compounds for the design of mPGES-1 inhibitors” (Bioorg Med Chem, 2016).
# Calls of active or inactive are those of the source. No cut-off for these calls is given here.
# Tests used:
# Prostaglandin E synthase = biological target: T1, Prostaglandin E synthase (Homo sapiens, UniProt O14684); assay: Inhibition of PGES-1 in IL-1beta stimulated human A549 cell microsomes using PGH2 as substrate assessed as suppression of PGE2 formation preincubated for 15 mins followed by substrate addition by reversed phase-HPLC analysis
# T1 sequence (O14684 whole entry): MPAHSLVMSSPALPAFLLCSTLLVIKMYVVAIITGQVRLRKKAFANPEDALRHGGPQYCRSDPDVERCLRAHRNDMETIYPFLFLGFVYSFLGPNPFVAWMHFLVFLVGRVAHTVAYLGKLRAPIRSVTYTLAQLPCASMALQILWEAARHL
# [1] = biological target: T2, Prostaglandin E synthase (Homo sapiens) (UniProt O14684); assay: Inhibition of PGES-1 in IL-1beta stimulated human A549 cell microsomes using PGH2 as substrate assessed as suppression of PGE2 formation at 10 uM preincubated for 15 mins followed by substrate addition by reversed phase-HPLC analysis
# T2 sequence (whole entry): T1 sequence (O14684 whole entry)
SMILES,IC50 (Prostaglandin E synthase) [nM],inhibition [1]
COC(=O)/C=C/c1cc(O)c2c(c1)[C@@H](C(=O)OC)[C@H](c1ccc(O)c(O)c1)O2 (racemic),8500,Active
C=Cc1ccc(/C=C/c2ccc3c(c2)[C@@H](c2ccc(C=C)cc2)[C@H](c2ccc(O)cc2)O3)cc1 (racemic),–,inactive
COc1cc(/C=C/c2ccc3c(c2)[C@@H](c2cc(OC)cc(OC)c2)[C@H](c2ccc(O)cc2)O3)cc(OC)c1 (racemic),–,Active
COc1cc([C@@H]2Oc3c(OC)cc(/C=C/c4cc(OC)c(OC)c(OC)c4)cc3[C@H]2c2cc(OC)c(OC)c(OC)c2)ccc1O (racemic),–,Active
COc1ccc(/C=C/c2ccc3c(c2)[C@@H](c2ccc(OC)cc2)[C@H](c2ccc(O)cc2)O3)cc1 (racemic),–,Active

# The next lines start with the values.
IC50 (Prostaglandin E synthase) [nM],inhibition [1],SMILES
2100,–,O=C(/C=C/c1cc(O)c2c(c1)[C@@H](C(=O)OCCc1ccccc1)[C@H](c1ccc(O)c(O)c1)O2)OCCc1ccccc1
2800,–,O=C(/C=C/c1cc(O)c2c(c1)[C@H](C(=O)OCCc1ccccc1)[C@@H](c1ccc(O)c(O)c1)O2)OCCc1ccccc1
3600,Active,CCOC(=O)/C=C/c1cc(O)c2c(c1)[C@@H](C(=O)OCC)[C@H](c1ccc(O)c(O)c1)O2 (racemic)
2000,–,O=C(/C=C/c1cc(O)c2c(c1)[C@@H](C(=O)OCCc1ccccc1)[C@H](c1ccc(O)c(O)c1)O2)OCCc1ccccc1 (racemic) [listing 1 of 2 here]
2100,Active,CCCCOC(=O)/C=C/c1cc(O)c2c(c1)[C@@H](C(=O)OCCCC)[C@H](c1ccc(O)c(O)c1)O2 (racemic)
–,Active,O=C(/C=C/c1cc(O)c2c(c1)[C@@H](C(=O)OCCc1ccccc1)[C@H](c1ccc(O)c(O)c1)O2)OCCc1ccccc1 (racemic) [listing 2 of 2 here]
